Laboratory results published in US20040142977A1, “4-Substituted-picolinic acid amide derivatives useful as fungicides” (priority 2001, published 2004).

O=Cc1ccnc(C(=O)Nc2ccc(Oc3ccc(C(F)(F)F)cc3)cc2)c1O [1-2, 2-{N-para-[4-(trifluoromethylphenoxy)phenyl]} aminocarbonyl-3-hydroxy-4-formyl pyridine]
melting point: 160 °C
